Structures are written as SMILES.

A short description of the data set: gradient 5% acetonitrile 3 min, to 50% in 2 min, to 85% in 15 min, held 3 min, 100 µL/min. Conditions: column: Zorbax Extend-C18 2.1 x 50 mm; eluents: water / acetonitrile, 0.1% formic acid. The method in brief:
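Standards, all pure, were combined into mixtures of ~100 molecules and run at 100 μL/min on a Zorbax Extend-C18 column (2.1 × 50 mm, 1.8 μm) with water and acetonitrile, each containing 0.1% formic acid. A coupled quadrupole time-of-flight mass spectrometer operated in positive and negative ionization mode. Retention time values come from computationally picked adduct peaks, each inspected manually.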
Compound `CCc1sc(N)nc1-c1ccc(OC)cc1` gave an RP-LC retention time of 668 s.

In the case of `COc1ccc(Cl)cc1S(=O)(=O)N1C[C@@H]2C[C@H]1C[C@@H]2NC(=O)c1ccccc1`, the RP-LC retention time is 873 s.

`COc1ccc(OCc2noc(CNC(=O)c3cc(-c4ccco4)on3)n2)cc1` had an RP-LC retention time of 832 s.

For the compound `Cn1c(=O)n(CC(=O)O)c(=O)c2c1nc1n2CCN1c1ccc(Cl)cc1`, the RP-LC retention time was found to be 748 s.

As for `Cc1ccc(Nc2nc(-c3ccc4c(c3)OCO4)cs2)nc1`, the RP-LC retention time is 863 s.

In turn, `O=C(Cc1ccccc1)N1CCC(Nc2cccn3ncnc23)CC1` showed an RP-LC retention time of 713 s.

Take `O=C(NCCc1ccccc1)C1CCCN(c2ncnc3c2nc2n3CCCCC2)C1` (stereo not given): the RP-LC retention time was 758 s.

Turning to `Cc1ccc(CNC(=O)c2cc(-c3ccncc3)cn2C)cc1C`, the RP-LC retention time is 672 s.

In turn, `Cc1cc(N2CCN(C(=O)Nc3cccc(Cl)c3)CC2)nc(N2CCOCC2)n1` had an RP-LC retention time of 672 s.

In the case of `Cc1cc(C)n(-c2ccnc(N3CCC(C(=O)NCC4CC4)CC3)n2)n1`, the RP-LC retention time came to 739 s.

Regarding `COc1ccc(Cl)cc1NC(=O)N1CCC(n2cnc3cc(F)ccc3c2=O)CC1`, the RP-LC retention time was found to be 895 s.

As to `CCN1CCn2cc(S(=O)(=O)NCc3cc(F)cc(F)c3)cc2C1=O`, the RP-LC retention time is 794 s.

As to `CCOc1cccc(CN2C[C@@H]3C(=O)N(CCCN4CCCC4=O)C(=O)[C@@H]3C2)c1`, the RP-LC retention time was determined as 617 s.

In turn, `Cc1cc2[nH]c(C(=O)Nc3ccc(F)cc3Br)c(CN(C)C)c2s1` came in with an RP-LC retention time of 678 s.

Take `Cc1cc(C(=O)N2CCCCC2)c2c(=O)n(CC(=O)Nc3cc(F)ccc3F)c(=O)n(C)c2n1`: the RP-LC retention time turned out to be 837 s.

Regarding `Cc1csc(-c2ccc(N3CCN(C(=O)c4cc5ccccc5[nH]4)CC3)nc2)n1`, the RP-LC retention time worked out at 852 s.

The compound `O=C(NCCCc1ccccc1)C1CCN(C(=O)c2ncn3c2COC(c2ccccc2)C3)CC1` (stereo not given) yielded an RP-LC retention time of 821 s.

`COc1ccc(OCC(=O)NCc2cc(-c3cc4ccccc4o3)on2)cc1` registered an RP-LC retention time of 893 s.

As to `O=C1c2ccccc2-c2c1c1ccccc1c(=O)n2Cc1ccccc1`, the RP-LC retention time was 1130 s.

For `Cc1ccc(S(=O)(=O)N2CCN(c3cc(C)nc(NC4CCCCC4)n3)CC2)cc1`, the RP-LC retention time was determined as 811 s.

For `CCN1C(=O)C2(CCN(S(=O)(=O)c3cccc(C)c3)CC2)c2ccccc21`, the RP-LC retention time is 1070 s.

The compound `COc1ccccc1Cc1noc(C2CN(S(=O)(=O)c3ccc(F)c(Cl)c3)C2)n1` gave an RP-LC retention time of 1030 s.

Take `O=C(c1ccsc1)N1CCn2c(nnc2-c2ccccc2)C1`: the RP-LC retention time worked out at 611 s.

In turn, `CCN(CC)CCCNC(=O)C1CCCN(c2ncc(-c3ccccc3)cn2)C1` (stereo not given) returned an RP-LC retention time of 673 s.

Compound `CCN(CC)CCNC(=O)CCc1nc2c(C)nn(-c3ccccc3)c2n(C)c1=O` returned an RP-LC retention time of 585 s.

In the case of `COc1ccc(NC(=O)C2CCCN2S(=O)(=O)c2ccc(F)cc2)cc1` (stereo not given), the RP-LC retention time stood at 844 s.

Regarding `COc1ccc2c(CCNC(=O)c3ccc(C(C)(C)C)cc3)c[nH]c2c1`, the RP-LC retention time was found to be 982 s.

Turning to `O=C(O)c1cnc(-c2ccccc2)nc1-c1ccncc1`, the RP-LC retention time was determined as 653 s.

`Cc1ccc(NC(=O)Cn2nc3c(Oc4ccccc4C)nccn3c2=O)cc1F` displayed an RP-LC retention time of 825 s.

As to `CCC(C(=O)NCc1ccccn1)n1c2ccccc2c2cnn(C)c(=O)c21` (stereo not given), the RP-LC retention time came out at 634 s.

In turn, `Cc1ccccc1NC(=O)Cc1cccn1-c1ccc(Cl)cc1` returned an RP-LC retention time of 1040 s.

Turning to `COc1ccc(OC)c(NC(=O)N2CCCC(Cn3cnc4cccnc43)C2)c1` (stereo not given), the RP-LC retention time is 682 s.

Turning to `Cc1cc(C)n(-c2cc(NCc3ccccn3)ncn2)n1`, the RP-LC retention time stood at 600 s.

Take `Cc1nc2cc(-c3noc(-c4ccncc4)n3)ccc2n(C2CCCC2)c1=O`: the RP-LC retention time was 1130 s.

In turn, `Cc1cccc(NC(=O)Cn2c(N3CCOCC3)nc(C)cc2=O)c1` yielded an RP-LC retention time of 672 s.

Turning to `COc1ccccc1CCN1CC(=O)N(c2ccc(C)c(C)c2)[C@@H]2CS(=O)(=O)C[C@@H]21`, the RP-LC retention time came out at 897 s.

Turning to `Cn1cc(CCN2CCC(C(=O)NCC3CCCCC3)CC2)c2cccnc21`, the RP-LC retention time worked out at 619 s.

The compound `COC(=O)C1CCN(C(=O)Cc2csc(Nc3ccc(F)cc3)n2)CC1` showed an RP-LC retention time of 689 s.

For `COc1ccc(C)cc1NC(=O)Nc1c(-c2ccc(F)cc2)nc2ccccn12`, the RP-LC retention time turned out to be 714 s.

`COCCCNC(=O)C1CCN(c2nccnc2Sc2cccc(C)c2)CC1` came in with an RP-LC retention time of 886 s.

Regarding `CCc1nncn1C1CCN(S(=O)(=O)c2cc(Cl)ccc2OC)CC1`, the RP-LC retention time came out at 709 s.

On to `NC(=O)C1CCN(c2ncnc(N)c2[N+](=O)[O-])CC1`, for which the RP-LC retention time amounted to 512 s.

Take `Cc1ccc(-c2ncccc2CNS(=O)(=O)c2ccc(C)cc2)cc1`: the RP-LC retention time amounted to 684 s.

`Cc1cccc(S(=O)(=O)N2CCC(CN3CCCCCC3)CC2)c1` gave an RP-LC retention time of 672 s.

For the compound `CCn1cc(C(=O)Nc2ccc(Cl)cc2)c2cccnc21`, the RP-LC retention time amounted to 931 s.

As to `NC(=O)[C@H](Cc1ccccc1)NC(=O)[C@H](Cc1c[nH]c2ccccc12)NC(=O)[C@@H]1CCCN1C(=O)[C@@H](N)Cc1ccc(O)cc1`, the RP-LC retention time worked out at 680 s.

Take `Cc1ccc(C2CC(=O)c3cnc(Nc4nc(C)c5ccc(C)cc5n4)nc3C2)cc1` (stereo not given): the RP-LC retention time was determined as 808 s.

`O=c1ccc(-c2ccco2)nn1CCCNS(=O)(=O)/C=C/c1ccccc1` returned an RP-LC retention time of 759 s.

In turn, `CCOCCCNC(=O)Nc1c(-c2cccc(C)c2)nc2ccccn12` yielded an RP-LC retention time of 863 s.

Regarding `Oc1cc(-n2cccn2)c(O)cc1-n1cccn1`, the RP-LC retention time turned out to be 868 s.

On to `O=C(NCc1ccccc1Cl)c1cn2c(n1)COCC2`, for which the RP-LC retention time was determined as 665 s.

Regarding `CC1=C(c2ccc(C)c(C)c2)S(=O)(=O)N=C1N1CCCN(C(=O)NC(C)(C)C)CC1`, the RP-LC retention time was 888 s.

`COc1cccc(-c2noc(COC(=O)C3=CN(Cc4ccccc4)S(=O)(=O)N=C3C)n2)c1`: the RP-LC retention time was 1110 s.

`COc1ccc(CNC(=O)NCCC(O)C(C)(C)C)cc1` (stereo not given): the RP-LC retention time was found to be 678 s.

In turn, `CCOC(=O)c1oc2ccc(S(=O)(=O)N3CCCC(c4nn[nH]n4)C3)cc2c1C` (stereo not given) displayed an RP-LC retention time of 822 s.

`Cc1ccc2c(c1)C(O)(CC(=O)c1cccc(N)c1)C(=O)N2` (stereo not given) displayed an RP-LC retention time of 606 s.

For the compound `CCn1c(=O)sc2cc(S(=O)(=O)N3CCC(C(=O)Nc4ccccn4)CC3)ccc21`, the RP-LC retention time amounted to 751 s.

With `CCOC(=O)C1=C(CNC2CCCCC2)NC(=O)NC1c1ccc(C)cc1` (stereo not given), the RP-LC retention time was determined as 662 s.

Regarding `Cc1cccc(N2C=C(C(=O)N3CCOCC3)S(=O)(=O)c3ccc(Cl)cc32)c1`, the RP-LC retention time amounted to 868 s.

In turn, `Cn1nc(C(=O)Nc2ccccc2)c2c1CCN(C(=O)Nc1ccccc1Br)C2` returned an RP-LC retention time of 903 s.

In the case of `COC(=O)c1scc(C)c1NC(=O)C(C)NC(C)C` (stereo not given), the RP-LC retention time was 618 s.

The compound `CC1CCN(C(=O)c2cn(CC3CCCO3)cc3c(=O)n(-c4ccccc4)nc2-3)CC1` (stereo not given) had an RP-LC retention time of 766 s.

In turn, `O=C(NCc1cccnc1Oc1ccccc1)c1ccco1` gave an RP-LC retention time of 685 s.

As to `CCCCN1C(=O)C(NC(=O)c2cccc(OC)c2)(C(F)(F)F)C(C(C)=O)=C1C` (stereo not given), the RP-LC retention time worked out at 916 s.

For `Cn1cnc(S(=O)(=O)N2CCC(C(=O)N3CCCCCC3)CC2)c1`, the RP-LC retention time came out at 638 s.

As to `COc1ccc(C(=O)Nc2nc(CC(=O)NCc3cccs3)cs2)cc1`, the RP-LC retention time was found to be 739 s.

For `O=C(c1ccc2[nH]ccc2c1)N1CCN(c2cc(-c3ccc(Cl)cc3)[nH]n2)CC1`, the RP-LC retention time was found to be 798 s.

For `COc1cccc(-c2nnc(Cc3nc(-c4ccc(Br)cc4)no3)o2)c1`, the RP-LC retention time was found to be 1100 s.

`O=C1CC[C@@H](C(=O)N2CSC[C@H]2C(=O)O)N1` had an RP-LC retention time of 562 s.

Regarding `COc1ccc(C)cc1NS(=O)(=O)c1ccc(-c2nnc(C3CCC3)o2)o1`, the RP-LC retention time amounted to 922 s.

`CCCOc1nc2ccccc2nc1N1CCCC(C(=O)NC2CC2)C1` (stereo not given) displayed an RP-LC retention time of 1010 s.

As for `CCCNC(=O)C1CCCN(c2nc3ncn(CC(=O)NC4CCCC4)c(=O)c3s2)C1` (stereo not given), the RP-LC retention time was found to be 641 s.

Turning to `CCc1ccc(NC(=O)C2CCCN(S(=O)(=O)c3cc(-c4noc(C)n4)cs3)C2)cc1` (stereo not given), the RP-LC retention time was found to be 992 s.

For the compound `COc1ccc(-c2nc(CN3C(=O)C(O)(c4ccccc4)c4ccccc43)c(C)o2)cc1` (stereo not given), the RP-LC retention time worked out at 1040 s.

As for `Cn1nc(C(C)(C)C)cc1C(=O)N[C@@H](Cc1cccc(Cl)c1)C(=O)NCC#N`, the RP-LC retention time amounted to 946 s.

`CC(=O)Nc1cccc(-c2nc(-c3ccc4c(c3)oc(=O)n4C(C)C)no2)c1` had an RP-LC retention time of 936 s.

On to `COc1ccc(NC(=O)C2(C)Oc3cccnc3N(C(C)C)C2=O)cc1` (stereo not given), for which the RP-LC retention time came to 918 s.

Turning to `CCC(=O)N1CCc2c(sc3ncnc(N4CCCC4)c23)C1`, the RP-LC retention time stood at 641 s.

Consider `O=S(=O)(Cc1ccccc1F)N1CCC[C@H]1c1nc(-c2ccc(F)cc2)n[nH]1`, for which the RP-LC retention time was 837 s.

For `O=C1NC2(CCN(C(=O)c3cccc(F)c3)CC2)N=C1c1cccc(F)c1`, the RP-LC retention time turned out to be 821 s.
